Test results taken from patent publication US11046714B2, “2,2-difluorodioxolo A2A receptor antagonists” (Merck Sharp & Dohme Corp., priority 2013, dated 2021).

Biological target: human A2A receptor (Homo sapiens (Human), UniProt P29274)
Assay: competition binding assay using Scintillation Proximity technology
Settings: membranes from CHO-K1 cells expressing the human A2a receptor; 2.0 nM tritiated compound; Cheng-Prusoff
Method in brief: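 Membranes (1.0 μg) from CHO-K1 cells expressing human A2A were treated with adenosine deaminase, then incubated 1 h at room temperature with compound (3000–0.15 nM) and 2.0 nM tritiated SCH-type ligand on WGA SPA beads in PBS plus 10 mM MgCl2. Nonspecific binding was defined with 1 μM CGS 15943. Ki was derived from EC50 via Cheng-Prusoff.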

Chain of human A2A receptor (P29274 whole entry): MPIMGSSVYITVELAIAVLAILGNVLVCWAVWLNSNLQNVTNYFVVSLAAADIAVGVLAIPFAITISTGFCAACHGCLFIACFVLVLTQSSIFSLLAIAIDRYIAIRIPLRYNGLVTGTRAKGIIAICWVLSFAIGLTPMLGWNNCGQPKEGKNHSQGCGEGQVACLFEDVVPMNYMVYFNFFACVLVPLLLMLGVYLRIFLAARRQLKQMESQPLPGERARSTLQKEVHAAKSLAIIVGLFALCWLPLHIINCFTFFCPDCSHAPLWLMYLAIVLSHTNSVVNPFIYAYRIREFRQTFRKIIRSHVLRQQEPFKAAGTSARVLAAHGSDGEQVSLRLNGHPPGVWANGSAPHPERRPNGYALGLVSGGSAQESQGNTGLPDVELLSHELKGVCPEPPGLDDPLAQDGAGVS

Structure (SMILES) | Ki
Nc1nc2c3c(ccc2c2nc(CN4CCCC(F)(F)C4)nn12)OC(F)(F)O3 [Example 118, 8-[(3,3-difluoropiperidin-1-yl)methyl]-2,2-difluoro[1,3]dioxolo[4,5-h][1,2,4] triazolo[1,5-c]quinazolin-5-amine] | 4.2 nM
Nc1nc2c3c(ccc2c2nc(CN4CCC(F)(F)CC4)nn12)OC(F)(F)O3 [Example 119, 8-[(4,4-difluoropiperidin-1-yl)methyl]-2,2-difluoro[1,3]dioxolo[4,5-h][1,2,4] triazolo[1,5-c]quinazolin-5-amine] | 1.7 nM
Nc1nc2c3c(ccc2c2nc(CN4Cc5ccc(F)cc5C4)nn12)OC(F)(F)O3 [Example 120, 2,2-difluoro-8-[(5-fluoro-1,3-dihydro-2H-isoindol-2-yl)methyl][1,3] dioxolo[4,5-h][1,2,4]triazolo[1,5-c]quinazolin-5-amine] | 2.7 nM
Nc1nc2c3c(ccc2c2nc(CN4Cc5cnc(C(F)(F)F)nc5C4)nn12)OC(F)(F)O3 [Example 121, 2,2-difluoro-8-{[2-(trifluoromethyl)-5,7-dihydro-6H-pyrrolo[3,4-d]pyrimidin-6-yl]methyl}[1,3]dioxolo [4,5-h][1,2,4]triazolo[1,5-c]quinazolin-5-amine] | 16 nM
CCc1nnc2n1CCN(Cc1nc3c4ccc5c(c4nc(N)n3n1)OC(F)(F)O5)C2 [Example 122, 8-[(3-ethyl-5,6-dihydro[1,2,4]triazolo [4,3-a]pyrazin-7(8H)-yl)methyl]-2,2-difluoro[1,3]dioxolo[4,5-h][1,2,4] triazolo[1,5-c]quinazolin-5-amine] | 110 nM
Nc1nc2c3c(ccc2c2nc(CN4Cc5ccc(C(F)(F)F)cc5C4)nn12)OC(F)(F)O3 [Example 123, 2,2-difluoro-8-{[5-(trifluoromethyl)-1,3-dihydro-2H-isoindol-2-yl]methyl} [1,3]dioxolo[4,5-h][1,2,4]triazolo[1,5-c]quinazolin-5-amine] | 4.9 nM
Nc1nc2c3c(ccc2c2nc(CNCc4ccc(C(F)(F)F)cc4)nn12)OC(F)(F)O3 [Example 124, 2,2-difluoro-8-({[4-(trifluoromethyl)benzyl]amino}methyl)[1,3]dioxolo [4,5-h][1,2,4]triazolo[1,5-c]quinazolin-5-amine] | 1.6 nM
Nc1nc2c3c(ccc2c2nc(CNC4(C(F)(F)F)CCC4)nn12)OC(F)(F)O3 [Example 125, 2,2-difluoro-8-({[1-(trifluoromethyl)cyclobutyl]amino}methyl)[1,3]dioxolo [4,5-h][1,2,4]triazolo[1,5-c]quinazolin-5-amine] | 1.1 nM
Cc1cc(C)n(Cc2nc3c4ccc5c(c4nc(N)n3n2)OC(F)(F)O5)n1 [Example 129, 8-[(3,5-dimethyl-1H-pyrazol-1-yl)methyl]-2,2-difluoro[1,3]dioxolo[4,5-h][1,2,4]triazolo[1,5-c]quinazolin-5-amine] | 1 nM
Nc1nc2c3c(ccc2c2nc(CCCN4Cc5cccnc5C4)nn12)OC(F)(F)O3 [Example 137, 8-(3-(5H-pyrrolo[3,4-b]pyridin-6(7H)-yl)propyl)-2,2-difluoro-[1,3]dioxolo[4,5-h][1,2,4]triazolo[1,5-c]quinazolin-5-amine] | 1.9 nM
Nc1nc2c3c(ccc2c2nc([C@@H]4CCCN(CC(F)F)C4)nn12)OC(F)(F)O3 [Example 139, (R)-8-(1-(2,2-difluoroethyl)piperidin-3-yl)-2,2-difluoro-[1,3]dioxolo[4,5-h][1,2,4]triazolo[1,5-c]quinazolin-5-amine] | 1.5 nM
COC(=O)C(Cc1nc2c3ccc4c(c3nc(N)n2n1)OC(F)(F)O4)C(=O)OC [Example 148, dimethyl [(5-amino-2,2-difluoro[1,3]dioxolo[4,5-h][1,2,4]triazolo[1,5-c]quinazolin-8-yl)methyl]propanedioate] | 2 nM
Nc1nc2c3c(ccc2c2nc(CC(CCl)CCl)nn12)OC(F)(F)O3 [Example 150, 8-[3-chloro-2-(chloromethyl)propyl]-2,2-difluoro[1,3]dioxolo[4,5-h][1,2,4]triiazolo[1,5-c]quinazolin-5-amine] | 2.3 nM
Nc1nc2c3c(ccc2c2nc(CC4CN(C5CCC5)C4)nn12)OC(F)(F)O3 [Example 151, 8-[(1-cyclobutylazetidin-3-yl)methyl]-2,2-difluoro[1,3]dioxolo[4,5-h][1,2,4]triazolo[1,5-c]quinazolin-5-amine] | 65 nM
Nc1nc2c3c(ccc2c2nc(CC4CN(c5ccccn5)C4)nn12)OC(F)(F)O3 [Example 153, 2,2-difluoro-8-[(1-pyridin-2-ylazetidin-3-yl)methyl][1,3] dioxolo[4,5-h][1,2,4]triazolo [1,5-c]quinazolin-5-amine] | 170 nM
Nc1nc2c3c(ccc2c2nc(C[C@H](N)C4CC4)nn12)OC(F)(F)O3 [Example 158, 8-[(2S)-2-amino-2-cycloproplethyl]-2,2-difluoro[1,3]dioxolo[4,5-h][1,2,4]triazolo[1,5-c]quinazolin-5-amine] | 19 nM
Nc1nc2c3c(ccc2c2nc(C[C@@H](N)C4CC4)nn12)OC(F)(F)O3 [Example 159, 8-[(2R)-2-amino-2-cyclopropylethyl]-2,2-difluoro[1,3]dioxolo[4,5-h][1,2,4]triazolo[1,5-c]quinazolin-5-amine] | 180 nM
Nc1nc2c3c(ccc2c2nc([C@H]4CC[C@@H](N5CCCC(F)(F)C5)C4)nn12)OC(F)(F)O3 [Example 161, 8-[(1S,3R)-3-(3,3-difluoropiperidin-1-yl)cyclopentyl]-2,2-difluoro[1,3]dioxolo[4,5-h][1,2,4]triazolo[1,5-c]quinazolin-5-amine] | 32 nM

Further lines, results first:

Ki | Structure (SMILES)
29 nM | CN(C)Cc1nc2c3ccc4c(c3nc(N)n2n1)OC(F)(F)O4 [Example 126, 8-[(dimethylamino)methyl]-2,2-difluoro[1,3]dioxolo[4,5-h][1,2,4] triazolo[1,5-c]quinazolin-5-amine]
1.4 nM | Cc1csc(CN(Cc2nc3c4ccc5c(c4nc(N)n3n2)OC(F)(F)O5)CC2CC2)n1 [Example 127, 8-({(cyclopropylmethyl)[(4-methyl-1,3-thiazol-2-yl)methyl]amino}methyl)-2,2-difluoro[1,3]dioxolo[4,5-h][1,2,4] triazolo[1,5-c]quinazolin-5-amine]
2.5 nM | Nc1nc2c3c(ccc2c2nc(Cn4cccn4)nn12)OC(F)(F)O3 [Example 128, 8-((1H-pyrazol-1-yl)methyl)-2,2-difluoro-[1,3]dioxolo[4,5-h][1,2,4]triazolo[1,5-c]quinazolin-5-amine]
3.9 nM | Nc1nc2c3c(ccc2c2nc(Cn4nc(C(F)(F)F)cc4C(F)(F)F)nn12)OC(F)(F)O3 [Example 130, 8-{[3,5-bis(trifluoromethyl)-1H-pyrazol-1-yl]methyl}-2,2-difluoro [1,3]dioxolo[4,5-h][1,2,4]triazolo [1,5-c]quinazolin-5-amine]
1 nM | Nc1nc2c3c(ccc2c2nc([C@@H]4CCCN(CC(F)(F)F)C4)nn12)OC(F)(F)O3 [Example 138, (R)-2,2-difluoro-8-(1-(2,2,2-trifluoroethyl)piperidin-3-yl)-[1,3]dioxolo[4,5-h][1,2,4]triazolo[1,5-c]quinazolin-5-amine]
2.7 nM | Nc1nc2c3c(ccc2c2nc(CC(CO)CO)nn12)OC(F)(F)O3 [Example 149, 2-[(5-amino-2,2-difluoro[1,3]dioxolo[4,5-h][1,2,4]triazolo[1,5-c]quinazolin-8-yl)methyl]propane-1,3-diol]
5.5 nM | CC(F)(F)CN1CC(Cc2nc3c4ccc5c(c4nc(N)n3n2)OC(F)(F)O5)C1 [Example 152, 8-{[1-(2,2-difluoropropyl)azetidin-3-yl]methyl}-2,2-difluoro[1,3] dioxolo[4,5-h][1,2,4]triazolo[1,5-c]quinazolin-5-amine]
16 nM | Nc1nc2c3c(ccc2c2nc([C@H]4CC[C@H](N5CCCC(F)(F)C5)C4)nn12)OC(F)(F)O3 [Example 160, 8-[(1S,3S)-3-(3,3-difluoropiperidin-1-yl)cyclopentyl]-2,2-difluoro[1,3]dioxolo[4,5-h][1,2,4]triazolo[1,5-c]quinazolin-5-amine]
